Results as given in patent US11452762B2, “Method of treating rhinitis with C-type natriuretic peptides” (IGISU Co., Ltd., priority 2009, dated 2022).
Entries after “also recorded” stand apart in the source; their conditions may differ.

Columns and labels:
[1] = test system: patients with rhinitis, allergic rhinitis in particular; experiment: Administration tests of CNP, BNP or ANP nasal solution preparations in rhinitis patients (case studies); assay type: in vivo, human; settings: for Symptom improvement (severity level before → after application): 50 μg/ml nasal solution, one spray (130 μl, 6.5 μg) in each nostril once or twice a day, each value one patient (Case); for Effect on nasal itching / tickling feeling (in words): 50 μg/ml twice a day; for Time after application until slight improvement in nasal itching: initial application; for Overall effect on rhinitis symptoms (in words): patients with rhinitis, BNP versus ANP
Description: Diagnosis, evaluation of symptoms, and examination of the CNP nasal drop preparations, BNP nasal drop preparations and ANP nasal drop preparation were performed as follows. The subjects are patients in whom conventional external medicines such as steroids are not sufficiently effective, or patients in whom the use of steroids must be avoided due to local side effects such as nasal irritation and dryness. Diagnosis and treatment of these subjects were performed by the present applicant as a medical doctor. Severity evaluation of symptoms of allergic rhinitis was performed, in principle, in accordance with “Guidelines for medical care of nasal allergies, 2009 edition” (edited by the committee for creation of guidelines for medical care of nasal allergies), by classifying into 5 stages as shown below. Here, “mixed type” refers to the cases wherein both of the sneezing attack or rhinorrhea and the nasal occlusion were presented with the same severity. […] In the above table, evaluation scores for sneezing fit, rhinorrhea and nasal occlusion are as described in the table below. […] Administration tests of the nasal solution preparations of the present invention were performed by, in principle, spraying the CNP nasal solution, BNP nasal solution or ANP nasal solution used to fill a nasal spraying device twice a day at awakening time and before bedtime, with one spray in each nostril at each time. […] Prior to the application of CNP preparations, BNP preparations or ANP preparation, the subjects' history was obtained, scratch tests for allergens were performed and diagnosis was made.

[2] = test system: pollen allergy; settings: after 2 weeks of application, spraying once a day; cited from earlier work
[3] = 50 μg/ml, initial or continued application, listed as ANP nasal solution

## CC[C@H](C)[C@@H]1NC(=O)[C@H](CCCNC(=N)N)NC(=O)[C@H](CC(=O)O)NC(=O)[C@H](CCSC)NC(=O)[C@H](CCCCN)NC(=O)[C@H](CCCNC(=N)N)NC(=O)CNC(=O)[C@H](Cc2ccccc2)NC(=O)[C@@H](NC(=O)CNC(=O)[C@H](CO)NC(=O)CNC(=O)[C@H](CCC(N)=O)NC(=O)[C@@H](NC(=O)[C@H](CCSC)NC(=O)[C@H](CCCCN)NC(=O)[C@@H]2CCCN2C(=O)[C@@H](N)CO)C(C)C)CSSC[C@@H](C(=O)N[C@@H](CCCCN)C(=O)N[C@H](C(=O)N[C@@H](CC(C)C)C(=O)N[C@@H](CCCN=C(N)N)C(=O)N[C@@H](CCCN=C(N)N)C(=O)N[C@@H](Cc2cnc[nH]2)C(=O)O)C(C)C)NC(=O)CNC(=O)[C@H](CC(C)C)NC(=O)CNC(=O)[C@H](CO)NC(=O)[C@H](CO)NC(=O)[C@H](CO)NC(=O)[C@H](CO)NC1=O [BNP nasal solution preparation, human BNP-32]
[1]; 50 μg/ml nasal spray
  Local irritation symptoms / side effects: later. No irritation
[1]; 50 μg/ml nasal spray, listed as BNP nasal solution
  Local irritation symptoms / side effects: local irritation symptoms did not occur; also recorded: no irritation symptoms were observed
[1]; 100 μg/ml nasal spray
  Local irritation symptoms / side effects: it does not exhibit such side effects
[1]; 200 μg/ml nasal spray, listed as BNP nasal solution
  Local irritation symptoms / side effects: no local irritation symptoms or feelings of discomfort

## CC[C@H](C)[C@@H]1NC(=O)[C@H](CCCNC(=N)N)NC(=O)[C@H](CC(=O)O)NC(=O)[C@H](CC(C)C)NC(=O)[C@H](CCCCN)NC(=O)[C@H](CC(C)C)NC(=O)CNC(=O)[C@H](Cc2ccccc2)NC(=O)[C@@H](NC(=O)CNC(=O)[C@H](CCCCN)NC(=O)[C@H](CO)NC(=O)[C@H](CC(C)C)NC(=O)CN)CSSC[C@@H](C(=O)O)NC(=O)CNC(=O)[C@H](CC(C)C)NC(=O)CNC(=O)[C@H](CO)NC(=O)[C@H](CCSC)NC(=O)[C@H](CO)NC(=O)CNC1=O [CNP nasal solution preparation, human CNP-22]
[1]; 100 μg/ml nasal spray
  Local irritation symptoms / side effects: side effects such as local irritation symptoms were not observed; also recorded: No local irritation symptoms were observed; also recorded: No local side effects such as irritation, as well as no systemic side effects such as drowsiness were observed; also recorded: without irritation or local side effects; also recorded: without any irritation symptoms
  Permeability of the nasal solution (in words): good and good permeability

## C[C@@H]1C[C@H]2[C@@H]3CCC4=CC(=O)C=C[C@]4(C)[C@@]3(Cl)[C@@H](O)C[C@]2(C)[C@@]1(OC(=O)c1ccco1)C(=O)CCl [Mometasone furoate hydrate]
[2]
  Degree of improvement in nasal occlusion: 30-40%
  Degree of improvement in overall symptoms: 40-50%

## human ANP-28 [ANP nasal solution preparation]
[1]
  Symptom improvement (severity level before → after application): Severe → severe
  Effect on nasal itching / tickling feeling (in words): improved slightly.
  Overall effect on rhinitis symptoms (in words): no immediate effect was observed
[1]; listed as ANP nasal solution
  Symptom improvement (severity level before → after application): severe before the ANP application to still severe
  Effect on nasal itching / tickling feeling (in words): slightly improved
[1]; 50 μg/ml
  Time after application until slight improvement in nasal itching: At 1 hr later, a slight
[1]; 50 μg/ml, listed as ANP nasal solution
  Time after application until slight improvement in nasal itching: One hour later
[1]; 50 μg/ml, initial or continued application
  Effect on nasal occlusion (in words): sensation was not improved.
[1]; [3]
  Effect on nasal occlusion (in words): not improved; also recorded: no changes
  Effect on rhinorrhea / runny nose (in words): did not stop; also recorded: no changes; also recorded: not improved; also recorded: No improvement
[1]; 50 μg/ml, once or twice a day
  Number of nose blows under application: approximately 20 times a day
[1]; 50 μg/ml, one application, listed as ANP nasal solution
  Persistence of the effects of an application (in words): persistence was short
[1]; 50 μg/ml, subjective, listed as ANP nasal solution
  Time after application until nasal passages opened: 20 min
[1]; listed as ANP preparations
  Overall effect on rhinitis symptoms (in words): no improvements or worsening
